#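 How tested: cells in 96-well plates exposed to compound for 48 hours at five concentrations. GI50 is the concentration that inhibits growth by half. TGI: total growth inhibition.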
# Assays:
# Assay in all cases: NCI tumour cell line growth inhibition, 48 h
# BT-549 breast = system: BT-549 breast
# DU-145 prostate = system: DU-145 prostate
# HL-60(TB) leukemia = system: HL-60(TB) leukemia
# NCI-H226 lung = system: NCI-H226 lung
# OVCAR-3 ovarian = system: OVCAR-3 ovarian
# OVCAR-5 ovarian = system: OVCAR-5 ovarian
# SF-295 CNS = system: SF-295 CNS
# SF-539 CNS = system: SF-539 CNS
# SNB-19 CNS = system: SNB-19 CNS
# U251 CNS = system: U251 CNS
SMILES,GI50 (BT-549 breast) [µM],TGI (BT-549 breast) [µM],GI50 (DU-145 prostate) [µM],TGI (DU-145 prostate) [µM],GI50 (HL-60(TB) leukemia) [µM],TGI (HL-60(TB) leukemia) [µM],GI50 (NCI-H226 lung) [µM],TGI (NCI-H226 lung) [µM],GI50 (OVCAR-3 ovarian) [µM],TGI (OVCAR-3 ovarian) [µM],GI50 (OVCAR-5 ovarian) [µM],TGI (OVCAR-5 ovarian) [µM],GI50 (SF-295 CNS) [µM],TGI (SF-295 CNS) [µM],GI50 (SF-539 CNS) [µM],TGI (SF-539 CNS) [µM],GI50 (SNB-19 CNS) [µM],TGI (SNB-19 CNS) [µM],GI50 (U251 CNS) [µM],TGI (U251 CNS) [µM]
N#Cc1ncc(-c2ccc(C(F)(F)F)cc2)c(NCc2cc(C(F)(F)F)cc(C(F)(F)F)c2)n1,5.88,> 100,5.19,> 100,2.36,5.76,4.85,> 100,3.8,22.7,8.9,> 100,2.78,29.1,8.5,> 100,4.84,63.3,3.66,53.5
CCC1C(=O)OCc2c1cc1n(c2=O)Cc2cc3ccccc3nc2-1 (configuration not stated),–,> 59.5,–,> 30.9,–,> 36.2,–,> 100,–,> 100,–,> 100,–,> 33.7,–,5.67,–,> 100,–,> 43
CCC[CH2][Sn]([CH2]CCC)([O]C(=O)c1cc(F)ccc1F)[O][Sn]([CH2]CCC)([CH2]CCC)[O]C(=O)c1cc(F)ccc1F,0.225,0.946,0.646,1.92,0.139,2.6,0.354,1.25,0.512,1.61,1.76,3.16,0.606,1.85,0.386,1.22,0.667,1.76,0.175,0.584
Nc1ncnc2c1ncn2Cc1ccc(C23CC4CC(CC(C4)C2)C3)c(OCc2cc(F)c(F)cc2F)c1,> 100,> 100,15.3,> 100,3.06,10.7,> 100,> 100,3.27,> 100,68.6,> 100,6.29,> 100,50.2,> 100,29.5,> 100,5.59,42.8
Cc1cc2cc3cc(C)c(N(C)C)cc3[n+](C)c2cc1N(C)C,2.55,9.62,4.87,31.9,3.22,> 100,5.68,48,3.13,14,11.9,> 100,2.53,14,3.05,12.1,4.22,> 100,2.05,21.2
Cc1nc(-c2ccccc2)c(Cc2ccccc2O)c(=O)[nH]1,–,> 100,–,> 100,–,> 100,–,> 100,–,> 100,–,> 100,–,> 100,–,> 100,–,> 100,–,> 100
CCCc1cc(O)c2c3c(c(=O)oc2c1)CN(C)CC3,48.1,> 100,> 100,> 100,50.2,> 100,> 100,> 100,> 100,> 100,> 100,> 100,28.3,> 100,43.2,> 100,> 100,> 100,56.4,> 100
CC(=O)Nc1ccc(/C=C/C(=O)c2ccccc2)cc1,20.1,41.2,3.13,10.6,24.8,81.2,27.9,> 100,7.41,20.1,18.3,45.3,14.4,31.7,14,32.9,13.5,34.1,4.61,17.7
CCCCOc1ccc(NC(=O)n2nc(N)c3ccccc32)cc1,17.6,37,19.8,70,0.813,21,21,> 85.2,19,42.2,21.9,68.4,23.5,79.3,17.2,35.7,52,> 100,30.9,> 100
CC(=O)N1N=C(c2ccc(Nc3nc(Nc4ccc(Cl)cc4)nc(Nc4ccc(Cl)cc4)n3)cc2)CC1c1ccc([N+](=O)[O-])cc1 (configuration not stated),10.6,88.9,5.56,> 54.9,6.15,24.4,12.9,> 82.7,5.93,25.6,19.4,> 100,1.87,13.6,6,25.5,3.8,38.7,7.42,> 100
N#Cc1cccc(OCc2nc(N)nc(N)c2-c2ccc(Cl)c(Cl)c2)c1,3.01,> 100,4.08,> 100,1.55,> 100,7.44,> 100,5.53,> 100,6.87,> 100,0.46,14.3,1.43,65.4,4.28,> 100,0.749,> 100
O=S(=O)(Cc1ccc(Cl)cc1Cl)c1ccc(Cl)cc1,1.54,> 75.4,1.74,16.1,0.37,17.7,4.52,> 100,0.346,1.8,4.28,> 100,0.495,10.8,0.47,3.72,1.38,> 100,0.496,> 100
O=C1CC(c2cccc(O)c2)C2(C(=O)NC(=S)NC2=O)C(c2cccc(O)c2)C1 (configuration not stated),> 100,> 100,> 100,> 100,> 100,> 100,> 100,> 100,> 100,> 100,> 100,> 100,> 100,> 100,> 100,> 100,> 100,> 100,> 100,> 100
C/C=C/C/C=C/CCC(=O)[C@H]1O[C@H]1C(N)=O,–,25.3,13.7,27.1,5.19,25.2,15.1,40.6,13.9,27.4,16.8,31.4,–,34.8,–,31.8,14.5,29.5,14.5,28.3
COc1cc(C(=O)N2N=C(c3ccc(S(C)(=O)=O)cc3)CC2c2ccco2)cc(OC)c1OC (configuration not stated),5.2,> 71.7,7.04,> 78.1,1.41,4.47,> 57.3,> 100,1.95,5.46,> 80.2,> 100,3.04,> 100,3.12,17.4,5.92,> 100,5.09,> 100

# Reference: PubChem BioAssay (NCI)
